Results published in PubChem BioAssay (NCI).
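Results reflect a 48-hour exposure of cells in 96-well plates to compound at five concentrations. GI50 is the concentration that inhibits growth by half. TGI marks complete inhibition of growth.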

Legend:
Test in all cases: DTP human tumour cell line panel, 48 h
NCI/ADR-RES ovarian = test system: NCI/ADR-RES ovarian
SK-MEL-5 melanoma = test system: SK-MEL-5 melanoma
HL-60(TB) leukemia = test system: HL-60(TB) leukemia
MALME-3M melanoma = test system: MALME-3M melanoma
OVCAR-4 ovarian = test system: OVCAR-4 ovarian
OVCAR-3 ovarian = test system: OVCAR-3 ovarian
K-562 leukemia = test system: K-562 leukemia
BT-549 breast = test system: BT-549 breast
NCI-H460 lung = test system: NCI-H460 lung
SK-MEL-2 melanoma = test system: SK-MEL-2 melanoma
HS 578T breast = test system: HS 578T breast
TK-10 renal = test system: TK-10 renal
786-0 renal = test system: 786-0 renal
T-47D breast = test system: T-47D breast
RXF 393 renal = test system: RXF 393 renal
MCF7 breast = test system: MCF7 breast
SW-620 colon = test system: SW-620 colon
PC-3 prostate = test system: PC-3 prostate
EKVX NSCLC = test system: EKVX NSCLC
CCRF-CEM leukemia = test system: CCRF-CEM leukemia
MDA-MB-468 breast = test system: MDA-MB-468 breast
HOP-62 NSCLC = test system: HOP-62 NSCLC
OVCAR-5 ovarian = test system: OVCAR-5 ovarian
U251 CNS = test system: U251 CNS
A549 NSCLC = test system: A549 NSCLC
RPMI-8226 leukemia = test system: RPMI-8226 leukemia
HOP-92 NSCLC = test system: HOP-92 NSCLC
SNB-75 CNS = test system: SNB-75 CNS
SN12C renal = test system: SN12C renal
COLO 205 colon = test system: COLO 205 colon
NCI-H23 lung = test system: NCI-H23 lung
UO-31 renal = test system: UO-31 renal
NCI-H226 lung = test system: NCI-H226 lung
MDA-MB-435 = test system: MDA-MB-435
HCT-116 colon = test system: HCT-116 colon
HCC-2998 colon = test system: HCC-2998 colon
SF-268 CNS = test system: SF-268 CNS
OVCAR-8 ovarian = test system: OVCAR-8 ovarian
HCT-15 colon = test system: HCT-15 colon
DU-145 prostate = test system: DU-145 prostate
HT29 colon = test system: HT29 colon
ACHN renal = test system: ACHN renal
A498 renal = test system: A498 renal
M14 melanoma = test system: M14 melanoma
SF-295 CNS = test system: SF-295 CNS
SF-539 CNS = test system: SF-539 CNS
MDA-MB-231 breast = test system: MDA-MB-231 breast
IGROV1 ovarian = test system: IGROV1 ovarian
SNB-19 CNS = test system: SNB-19 CNS
SK-OV-3 ovarian = test system: SK-OV-3 ovarian
KM12 colon = test system: KM12 colon
UACC-62 melanoma = test system: UACC-62 melanoma
CAKI-1 renal = test system: CAKI-1 renal
SK-MEL-28 melanoma = test system: SK-MEL-28 melanoma
SR leukemia = test system: SR leukemia
MOLT-4 leukemia = test system: MOLT-4 leukemia
UACC-257 melanoma = test system: UACC-257 melanoma

## Nc1cc(-c2c[nH]c3ccc(F)cc23)nc2cc(-c3c[nH]c4ccccc34)nn12
NCI/ADR-RES ovarian
  GI50: 3.82 µM
  TGI: 19.3 µM
SK-MEL-5 melanoma
  GI50: 3.79 µM
  TGI: 13.6 µM
HL-60(TB) leukemia
  GI50: 2180 nM
  TGI: 9.55 µM
MALME-3M melanoma
  GI50: 2240 nM
  TGI: 4.79 µM
OVCAR-4 ovarian
  GI50: 4.2 µM
  TGI: 18.9 µM
OVCAR-3 ovarian
  GI50: 4.17 µM
  TGI: 16.9 µM
K-562 leukemia
  GI50: 2150 nM
  TGI: 6.12 µM
BT-549 breast
  GI50: 8.6 µM
  TGI: 20.8 µM
NCI-H460 lung
  GI50: 2270 nM
  TGI: 5.37 µM
SK-MEL-2 melanoma
  GI50: 3.96 µM
  TGI: 15.1 µM
HS 578T breast
  GI50: 3.73 µM
  TGI: 20.5 µM
TK-10 renal
  GI50: 5.54 µM
  TGI: 19.9 µM
786-0 renal
  GI50: 1490 nM
  TGI: 2930 nM
T-47D breast
  GI50: 3.54 µM
  TGI: 20.9 µM
RXF 393 renal
  GI50: 2190 nM
  TGI: 7.82 µM
MCF7 breast
  GI50: 2540 nM
  TGI: 8.12 µM
SW-620 colon
  GI50: 2110 nM
  TGI: 4.22 µM
PC-3 prostate
  GI50: 3.18 µM
  TGI: 12.2 µM
EKVX NSCLC
  GI50: 3.49 µM
  TGI: 14.9 µM
CCRF-CEM leukemia
  GI50: 2650 nM
  TGI: 8.01 µM
MDA-MB-468 breast
  GI50: 1700 nM
  TGI: 4.3 µM
HOP-62 NSCLC
  GI50: 4.55 µM
  TGI: 21.8 µM
OVCAR-5 ovarian
  GI50: 3.3 µM
  TGI: 11.1 µM
U251 CNS
  GI50: 3.53 µM
  TGI: 14.1 µM
A549 NSCLC
  GI50: 3.81 µM
  TGI: 20.5 µM
RPMI-8226 leukemia
  GI50: 2640 nM
  TGI: 8.15 µM
HOP-92 NSCLC
  GI50: 2420 nM
  TGI: 7.09 µM
SNB-75 CNS
  GI50: 2880 nM
  TGI: 14.6 µM
SN12C renal
  GI50: 6.94 µM
  TGI: 21.7 µM
COLO 205 colon
  GI50: 1600 nM
  TGI: 3.2 µM
NCI-H23 lung
  GI50: 3.8 µM
  TGI: 17.7 µM
UO-31 renal
  GI50: 3.02 µM
  TGI: 12.7 µM
NCI-H226 lung
  GI50: 5.57 µM
  TGI: 32.6 µM
MDA-MB-435
  GI50: 3.67 µM
  TGI: 15.2 µM
HCT-116 colon
  GI50: 1910 nM
  TGI: 4.1 µM
HCC-2998 colon
  GI50: 2020 nM
  TGI: 4.14 µM
SF-268 CNS
  GI50: 4.15 µM
  TGI: 21.7 µM
OVCAR-8 ovarian
  GI50: 4.3 µM
  TGI: 26.7 µM
HCT-15 colon
  GI50: 1710 nM
  TGI: 3.69 µM
DU-145 prostate
  GI50: 4.3 µM
  TGI: 15.3 µM
HT29 colon
  GI50: 2090 nM
  TGI: 4.72 µM
ACHN renal
  GI50: 3.22 µM
  TGI: 10.9 µM
A498 renal
  GI50: 2800 nM
  TGI: 11.3 µM
M14 melanoma
  GI50: 1980 nM
  TGI: 4.21 µM
SF-295 CNS
  GI50: 1860 nM
  TGI: 4.04 µM
SF-539 CNS
  GI50: 2000 nM
  TGI: 4.01 µM
MDA-MB-231 breast
  GI50: 2000 nM
  TGI: 3.84 µM
IGROV1 ovarian
  GI50: 4.26 µM
  TGI: 17.6 µM
SNB-19 CNS
  GI50: 4.59 µM
  TGI: 18.9 µM
SK-OV-3 ovarian
  GI50: 10.1 µM
  TGI: 23 µM
KM12 colon
  GI50: 2350 nM
  TGI: 5.79 µM
UACC-62 melanoma
  GI50: 6.03 µM
  TGI: 19.3 µM
CAKI-1 renal
  GI50: 2740 nM
  TGI: 12.4 µM
SK-MEL-28 melanoma
  GI50: 2960 nM
  TGI: 9.82 µM
SR leukemia
  GI50: 2090 nM
  TGI: 8.42 µM
MOLT-4 leukemia
  GI50: 2440 nM
  TGI: 6.87 µM
UACC-257 melanoma
  GI50: 4.28 µM
  TGI: 15.2 µM
